Results published in patent publication US20260224489A1, “TRICINE AND CITRIC ACID-BASED CATIONIC LIPIDS WITH AROMATIC HEAD GROUPS” (SANOFI, priority 2023, published 2026).
Values belong to the molecule of their own block, whether it stands above or below them.

Experiments:
[1] = Lipid degradability by mouse lung S9 in vitro; format: in vitro ADME; settings: 2 μM lipid, 2.4 mg/ml lung S9, pH 7.4, 37° C., time points up to 48 hr
Protocol: (§1) Assay format—4 or 5 time points in triplicate.
(§2) • 1) Plan experiment, compounds, and reagents. • 2) Dissolve each lipid in DMSO or IPA to make 5 mM stock, then dilute by IPA to 200 μM work solution. • 3) Thaw mouse and human lung S9. • 4) Prepare pooled incubation mixture as in the reaction formulas below on ice. • 5) Aliquot 495 μL incubation mixture prepared in step #4 to each well of a 2 mL 96-well plate. • 6) Add 5 μL compound to each well to initiate the reaction. Take t0 samples (as in step #8). • 7) Cover the plate with 2 layers of breathable seals and incubate the plate on an orbital shaker at 150 rpm in a 37° C. CO2 incubator. • 8) At each time point, pipette to mix the incubation mixture 5 times, then take 70 μL of incubation mixture to a fresh plate. Store in −20° C. freezer immediately. • 9) Add 210 μL (3× volume) of the cold stop solution to each well of the sample plates collected. Mix at 600 rpm on an orbital shaker for 15 min. • 10) Centrifuge the quenched plates at 3800 rpm for 10 min at 4° C. and transfer supernatant to fresh plates. • 11) Load the supernatant on filter plates and centrifuge again at 3800 rpm for 5 min at 4° C. Collect final samples in fresh plates for LC/MS. • 11. Time course and stop solutions: 4-5 Time points (hour): e.g. 0, 4, 8, 24, 48 hr stop solution: 1:1:1 ACN/MeOH/IPA (v/v/v) with propranolol & MC3 as internal standard. Store at 4° C.

[2] = Lipid degradability by human lung S9 in vitro; format: in vitro ADME; settings: 2 μM lipid, 2.4 mg/ml lung S9, pH 7.4, 37° C., time points up to 48 hr
Protocol: as §1, §2

[3] = tested on: luciferase production in the lung; experiment: Delivery of Firefly Luciferase (FFL) mRNA by intratracheal administration via catheter, IVIS imaging; format: in vivo, male CD1 mice; settings: for FFLuc (Avr. Rad.): single intratracheal administration, lung; for in vivo FFL protein production (FIG. 8), in words: intratracheal delivery via catheter of FFL mRNA lipid nanoparticles to mice
Protocol: Lipid nanoparticle formulations 1, 2 and 4 were administered via intratracheal pulmonary delivery. Compound B was the only cationic lipid evaluated via intratracheal pulmonary delivery with lipid nanoparticle formulation 2. Compound A was the only cationic lipid evaluated via intratracheal pulmonary delivery with lipid nanoparticle formulation 4. All other cationic lipids were evaluated via intratracheal pulmonary delivery with lipid nanoparticle formulation 1.
Lipid nanoparticle formulations 1, 2 and 4 listed in Table 1 comprising FFL mRNA, cationic lipid, DMG-PEG2000, cholesterol and DOPE were administered to male CD1 mice (6-8 weeks old) by a single intratracheal administration via Catheter® (50 μl/animal) while under anesthesia. At approximately 24 hours post-dose, the animals were dosed with luciferin at 150 mg/kg (60 mg/mi) by intraperitoneal injection at 2.5 ml/kg. After 5-15 minutes, all animals were imaged using an IVIS imaging system to measure luciferase production in the lung.

[4] = dose 10 μg/Animal, lipid nanoparticle formulation 1, approximately 24 hours post-dose
[5] = dose 5 μg/Animal, lipid nanoparticle formulation 1, approximately 24 hours post-dose

SMILES: CCCCCCCCOC(=O)CC(CC(=O)OCCCCCCCC)(OC(=O)CCN(C)C)C(=O)OCCCCCCCC [Compound B, reference compound]
FFLuc (Avr. Rad.) ([3]; dose 10 μg/Animal, lipid nanoparticle formulation 2, approximately 24 hours post-dose): 139,058 p/s/cm^2/sr

SMILES: CCCCCCCCOC(=O)CC(CC(=O)OCCCCCCCC)(OC(=O)/C=C/C(=O)Oc1c(OC)cc(C(=O)OCCCN(C)C)cc1OC)C(=O)OCCCCCCCC [Compound X]
FFLuc (Avr. Rad.) [3, 4]: 173,197 p/s/cm^2/sr

SMILES: CC(C)CCCC(C)[C@H]1CCC2C3CC=C4C[C@@H](OC(=O)CCc5c[nH]cn5)CC[C@]4(C)C3CC[C@@]21C (stereo partly shown) [ICE, imidazole cholesterol ester, reference compound]
FFLuc (Avr. Rad.) [3, 4]: 7,508 p/s/cm^2/sr

SMILES: CCCCCCCCCCCCC(O)CN(CCCC(=O)Oc1c(OC)cc(C(=O)OCCCN(C)C)cc1OC)CC(O)CCCCCCCCCCCC (stereo not shown) [Compound A, reference compound]
FFLuc (Avr. Rad.) ([3]; dose 10 μg/Animal, lipid nanoparticle formulation 4, approximately 24 hours post-dose): 221,320 p/s/cm^2/sr

Continued, in another order:

In vitro degradation Mouse lung S9 [1]: 1.3 h
In vitro degradation Human lung S9 [2]: 14.8 h
SMILES: CCCCCC#CCOC(=O)CC(CC(=O)OCC#CCCCCC)(OC(=O)CCC(=O)Oc1c(OC)cc(C(=O)OCCCN(C)C)cc1OC)C(=O)OCC#CCCCCC [Compound V]
FFLuc (Avr. Rad.) [3, 4]: 567,300 p/s/cm^2/sr

In vitro degradation Mouse lung S9 [1]: 16.6 h
In vitro degradation Human lung S9 [2]: 20.2 h
SMILES: CCCCCCCCOC(=O)CC(CC(=O)OCCCCCCCC)(OC(=O)CCC(=O)Oc1c(OC)cc(C(=O)OCCCN(C)C)cc1OC)C(=O)OCCCCCCCC [Compound II]
FFLuc (Avr. Rad.) [3, 5]: 592,250 p/s/cm^2/sr
in vivo FFL protein production (FIG. 8), in words [3]: high levels of in vivo FFL protein production

In vitro degradation Mouse lung S9 [1]: 16.2 h
In vitro degradation Human lung S9 [2]: 20.2 h
SMILES: CCCCCCCCOC(=O)CC(CC(=O)OCCCCCCCC)(OC(=O)CCC(=O)Oc1c(OC)cc(C(=O)OCCN(C)C)cc1OC)C(=O)OCCCCCCCC [Compound I]
FFLuc (Avr. Rad.) [3, 5]: 158,516 p/s/cm^2/sr
in vivo FFL protein production (FIG. 8), in words [3]: high levels of in vivo FFL protein production

In vitro degradation Mouse lung S9 [1]: 36 h
In vitro degradation Human lung S9 [2]: long (over 48 h
SMILES: CCCCCCCCOC(=O)CC(CC(=O)OCCCCCCCC)(OC(=O)CCC(=O)Oc1c(OC)cc(/C=C/C(=O)OCCCN(C)C)cc1OC)C(=O)OCCCCCCCC [Compound XXVI]
FFLuc (Avr. Rad.) [3, 5]: 140,620 p/s/cm^2/sr
in vivo FFL protein production (FIG. 8), in words [3]: high levels of in vivo FFL protein production

In vitro degradation Mouse lung S9 [1]: 6.8 h
In vitro degradation Human lung S9 [2]: 17.1 h
SMILES: CCCCC/C=C/COC(=O)CC(CC(=O)OC/C=C/CCCCC)(OC(=O)CCC(=O)Oc1c(OC)cc(C(=O)OCCCN(C)C)cc1OC)C(=O)OC/C=C/CCCCC [Compound III]
FFLuc (Avr. Rad.) [3, 4]: 353,012 p/s/cm^2/sr
